Assay results taken from US8575158B2, “1-phenyl-substituted heterocyclyl derivatives and their use as prostaglandin D2 receptor modulators” (Actelion Pharmaceuticals Ltd., priority 2010, dated 2013).

Each molecule was assayed against T1, hCRTH2 receptor (Homo sapiens, UniProt Q9Y5Y4) (assay: Radioligand displacement assay (3H-PGD2) on hCRTH2 receptor membranes). Conditions: antagonistic activity, 3H-PGD2 radioligand displacement, HEK293-hCRTH2 membranes.
T1 construct: expressed in transfected cells; host or cells: HEK293
T1 sequence (Q9Y5Y4 1-395): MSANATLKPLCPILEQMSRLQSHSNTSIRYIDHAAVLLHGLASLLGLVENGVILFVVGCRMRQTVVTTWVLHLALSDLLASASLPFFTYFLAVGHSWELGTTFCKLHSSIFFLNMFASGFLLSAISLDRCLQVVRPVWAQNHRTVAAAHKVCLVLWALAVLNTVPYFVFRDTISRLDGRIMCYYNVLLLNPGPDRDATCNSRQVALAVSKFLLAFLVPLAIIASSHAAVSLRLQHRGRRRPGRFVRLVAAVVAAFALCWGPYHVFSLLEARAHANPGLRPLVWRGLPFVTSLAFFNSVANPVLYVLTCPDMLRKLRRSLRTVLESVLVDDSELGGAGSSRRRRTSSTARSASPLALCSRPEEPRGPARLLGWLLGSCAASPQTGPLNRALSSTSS
Type: binding

SMILES | IC50
O=C(O)COc1ccc(Cl)cc1C1c2ccccc2CCN1C(=O)COc1ccc(C(F)(F)F)nc1 (racemic) [Example 481] | 143 nM
O=C(O)COc1ccc(Cl)cc1[C@@H]1c2ccc(F)cc2CCN1C(=O)OCc1cncnc1 [Example 334, (S)-1-(2-Carboxymethoxy-5-chloro-phenyl)-6-fluoro-3,4-dihydro-1H-isoquinoline-2-carboxylic acid pyrimidin-5-ylmethyl ester] | 4.95 nM
Cn1cnc2cc(OCC(=O)N3CCc4ccccc4C3c3cc(Cl)ccc3OCC(=O)O)cnc21 (racemic) [Example 483] | 470 nM
Cc1nn(CCC(=O)N2Cc3ccccc3C2c2cc(Cl)ccc2OCC(=O)O)c2cccc(Cl)c12 (single isomer, unassigned) [Example 539] | 235 nM
O=C(O)COc1ccc(Cl)cc1C1c2ccccc2CCN1C(=O)[C@@H]1C[C@H]1c1ccccc1C(F)(F)F (mixture of isomers) [Example 423] | 6.62 nM
COc1ccc2ccn(CCC(=O)N3CCc4ccccc4C3c3cc(Cl)ccc3OCC(=O)O)c2c1 (racemic) [Example 390] | 7.52 nM
O=C(O)COc1ccc(Cl)cc1C1c2ccccc2CCN1C(=O)CCN1C(=O)COc2ccc(Cl)cc21 (racemic) [Example 442] | 347 nM

Second part, the molecule after the results:

IC50 | SMILES
36.7 nM | O=C(O)COc1ccc(Cl)cc1C1c2ccccc2CCN1C(=O)CCn1ccc2c(F)cccc21 (racemic) [Example 387]
40.2 nM | O=C(O)COc1ccc(Cl)cc1C1c2ccccc2CCN1C(=O)COc1ccc(Cl)cc1 (racemic) [Example 412]
14.3 nM | O=C(O)COc1ccc(Cl)cc1C1c2ccccc2CCN1C(=O)OCc1ccc(F)cc1 (racemic) [Example 362]
15.1 nM | O=C(O)COc1ccc(Cl)cc1C1c2ccccc2CN1C(=O)CCn1ncc2c(F)cccc21 (single isomer, unassigned) [Example 535, (4-Chloro-2-{2-[3-(4-fluoro-indazol-1-yl)-propionyl]-2,3-dihydro-1H-isoindol-1-yl}-phenoxy)-acetic acid]
2.01 nM | O=C(O)COc1ccc(Cl)cc1[C@@H]1c2ccccc2CCN1C(=O)OCc1cccc(F)c1 [Example 355, (S)-1-(2-Carboxymethoxy-5-chloro-phenyl)-3,4-dihydro-1H-isoquinoline-2-carboxylic acid 3-fluoro-benzyl ester]
1.69 nM | O=C(O)COc1ccc(Cl)cc1[C@@H]1c2ccc(F)c(F)c2CCN1C(=O)OCc1cnccn1 [Example 308, (S)-1-(2-Carboxymethoxy-5-chloro-phenyl)-5,6-difluoro-3,4-dihydro-1H-isoquinoline-2-carboxylic acid pyrazin-2-ylmethyl ester]
14.7 nM | Cc1cnn(COC(=O)N2CCc3c(ccc(F)c3F)[C@H]2c2cc(Cl)ccc2OCC(=O)O)c1 [Example 317, (S)-1-(2-Carboxymethoxy-5-chloro-phenyl)-5,6-difluoro-3,4-dihydro-1H-isoquinoline-2-carboxylic acid 4-methyl-pyrazol-1-ylmethyl ester]

Same assay, conditions: antagonistic activity; 3H-PGD2 displacement on HEK293-hCRTH2 membrane fragments

SMILES | IC50
Cc1nc(COC(=O)N2CCc3ccccc3[C@H]2c2cc(Cl)ccc2OCC(=O)O)cs1 [Example 278, (S)-1-(2-Carboxymethoxy-5-chloro-phenyl)-3,4-dihydro-1H-isoquinoline-2-carboxylic acid 2-methyl-thiazol-4-ylmethyl ester] | 1.28 nM
O=C(O)COc1cc(F)ccc1C1c2ccccc2CCN1C(=O)OCc1ccccc1 (racemic) [Example 215, (±)-1-(2-Carboxymethoxy-4-fluoro-phenyl)-3,4-dihydro-1H-isoquinoline-2-carboxylic acid benzyl ester] | 27 nM
Cc1ccc(OCC(=O)N2CCc3ccccc3C2c2cc(Cl)ccc2OCC(=O)O)c(C)n1 (racemic) [Example 75, (±)-(4-Chloro-2-{2-[2-(2,6-dimethyl-pyridin-3-yloxy)-acetyl]-1,2,3,4-tetrahydro-isoquinolin-1-yl}-phenoxy)-acetic acid] | 3.68 nM
Cc1ccccc1OCCC(=O)N1CCc2ccccc2C1c1cc(F)ccc1OCC(=O)O (racemic) [Example 147, (±)-{4-Fluoro-2-[2-(3-o-tolyloxy-propionyl)-1,2,3,4-tetrahydro-isoquinolin-1-yl]-phenoxy}-acetic acid] | 57.6 nM
CN(CC(=O)N1CCc2ccccc2C1c1cc(F)ccc1OCC(=O)O)S(=O)(=O)c1ccc(F)c(F)c1 (racemic) [Example 212] | 920 nM
Cc1cccc(-n2cncc2CCC(=O)N2CCc3ccccc3C2c2cc(Cl)ccc2OCC(=O)O)c1C (racemic) [Example 85, (±)-[4-Chloro-2-(2-{3-[3-(2,3-dimethyl-phenyl)-3H-imidazol-4-yl]-propionyl}-1,2,3,4-tetrahydro-isoquinolin-1-yl)-phenoxy]-acetic acid] | 18.9 nM
COc1ccc(OC(=O)N2CCc3ccccc3C2c2cc(F)ccc2OCC(=O)O)cc1 (racemic) [Example 173] | 102 nM
O=C(O)COc1ccc(F)cc1C1c2ccccc2CCN1C(=O)OCc1ccccc1 (racemic) [Example 1, (±)-1-(2-Carboxymethoxy-5-fluoro-phenyl)-3,4-dihydro-1H-isoquinoline-2-carboxylic acid benzyl ester] | 7.6 nM
CCn1c(C)c(CCC(=O)N2CCc3ccccc3C2c2cc(F)ccc2OCC(=O)O)c2ccccc21 (racemic) [Example 52, (±)-(2-{2-[3-(1-Ethyl-2-methyl-1H-indol-3-yl)-propionyl]-1,2,3,4-tetrahydro-isoquinolin-1-yl}-4-fluoro-phenoxy)-acetic acid] | 600 nM
CS(=O)(=O)Nc1cccc2c1CCN(C(=O)OCc1ccccc1)C2c1cc(F)ccc1OCC(=O)O (racemic) [Example 222, (±)-1-(2-Carboxymethoxy-5-fluoro-phenyl)-5-methanesulfonylamino-3,4-dihydro-1H-isoquinoline-2-carboxylic acid benzyl ester] | 141 nM
C[C@H](Oc1ccc(F)cc1C1c2ccccc2CCN1C(=O)OCc1ccccc1)C(=O)O (stereo partly drawn) [Example 2, 1-[2-((S)-1-Carboxy-ethoxy)-5-fluoro-phenyl]-3,4-dihydro-1H-isoquinoline-2-carboxylic acid benzyl ester] | 499 nM
O=C(O)COc1ccc(-c2cncnc2)cc1C1c2ccccc2CCN1C(=O)OCc1ccccc1 (racemic) [Example 188, (±)-1-(2-Carboxymethoxy-5-pyrimidin-5-yl-phenyl)-3,4-dihydro-1H-isoquinoline-2-carboxylic acid benzyl ester] | 89.4 nM

Continued, values first:

IC50 | SMILES
27.5 nM | O=C(O)COc1ccc(Cl)cc1C1c2ccccc2CCN1C(=O)CCc1cccc(C(F)(F)F)c1 (racemic) [Example 81, (±)-(4-Chloro-2-{2-[3-(3-trifluoromethyl-phenyl)-propionyl]-1,2,3,4-tetrahydro-isoquinolin-1-yl}-phenoxy)-acetic acid]
3.3 nM | O=C(O)COc1ccc(Cl)cc1C1c2ccccc2CCN1C(=O)OCc1ccc(F)cc1F (racemic) [Example 248]
17.3 nM | Cc1cccc(C)c1COC(=O)N1CCc2ccccc2C1c1cc(Cl)ccc1OCC(=O)O (racemic) [Example 247]
3.98 nM | O=C(O)COc1ccc(Cl)cc1C1c2ccccc2CCN1C(=O)OCc1c(F)cccc1Cl (racemic) [Example 252]
0.87 nM | Cc1cc(COC(=O)N2CCc3ccccc3[C@H]2c2cc(Cl)ccc2OCC(=O)O)on1 [Example 279, (S)-1-(2-Carboxymethoxy-5-chloro-phenyl)-3,4-dihydro-1H-isoquinoline-2-carboxylic acid 3-methyl-isoxazol-5-ylmethyl ester]
39.5 nM | O=C(O)COc1ccc(Cl)cc1C1c2cccc(F)c2CCN1C(=O)OCCc1ccccc1Cl (racemic) [Example 179, (±)-1-(2-Carboxymethoxy-5-chloro-phenyl)-5-fluoro-3,4-dihydro-1H-isoquinoline-2-carboxylic acid 2-(2-chloro-phenyl)-ethyl ester]
35.9 nM | O=C(O)COc1ccc(Cl)cc1C1c2ccccc2CCN1C(=O)CCCc1cccc(F)c1 (racemic) [Example 108, (±)-(4-Chloro-2-{2-[4-(3-fluoro-phenyl)-butyryl]-1,2,3,4-tetrahydro-isoquinolin-1-yl}-phenoxy)-acetic acid]
31 nM | Cc1ccccc1CCC(=O)N1CCc2ccccc2C1c1cc(F)ccc1OCC(=O)O (racemic) [Example 134, (±)-{4-Fluoro-2-[2-(3-o-tolyl-propionyl)-1,2,3,4-tetrahydro-isoquinolin-1-yl]-phenoxy}-acetic acid]
2.42 nM | Cc1ncsc1CCOC(=O)N1CCc2ccccc2[C@H]1c1cc(Cl)ccc1OCC(=O)O [Example 274, (S)-1-(2-Carboxymethoxy-5-chloro-phenyl)-3,4-dihydro-1H-isoquinoline-2-carboxylic acid 2-(4-methyl-thiazol-5-yl)-ethyl ester]
95.4 nM | Cc1ccccc1CCC(=O)N1CCc2c(F)cccc2C1c1cc(Cl)ccc1OCC(=O)O (racemic) [Example 118, (±)-{4-Chloro-2-[5-fluoro-2-(3-o-tolyl-propionyl)-1,2,3,4-tetrahydro-isoquinolin-1-yl]-phenoxy}-acetic acid]

Same assay, conditions: radioligand displacement (3H-PGD2), hCRTH2 receptor membranes; antagonistic activity

IC50 | SMILES
370 nM | N#CNC(=O)COc1ccc(Cl)cc1[C@@H]1c2ccccc2CCN1C(=O)OCc1ccccc1 [Example 567, (S)-benzyl 1-(5-chloro-2-(2-cyanamido-2-oxoethoxy)phenyl)-3,4-dihydroisoquinoline-2(1H)-carboxylate]
